Test results as given in US7217730B2, “Method for the use of pyranoindole derivatives to treat infection with Hepatitis C virus” (Wyeth, priority 2002, dated 2007).
Like-named read-outs stand apart in the source and are kept apart here.

Molecular target: T1, NS5B from the BK strain (genotype 1b) (Hepatitis C virus genotype 1b, UniProt P26663)
T1 construct: NS5B from the BK strain (genotype 1b) is expressed in E. coli as a protein in which the 21 C-terminal amino acids are replaced; made in house; host or cells: E. coli
Assay: Hepatitis C polymerase inhibition, NS5B BK strain, 33P-GTP filter assay
Format: biochemical
Settings: for inhibition at 20 µM: read-out: HCV pol % inh at 20 μM; for IC50: NS5B BK strain, read-out: HCV pol BK IC50
In short: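 Radiolabelled RNA synthesis was measured by filter capture and scintillation counting after EDTA stop. His-tagged, C-terminally truncated (Δ21) genotype 1b BK NS5B from E. coli, pre-exposed to compound for 15 min, copied a self-primed RNA template (~3 nM) with α-[33P]-GTP for 2 h at room temperature.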

T1 sequence (P26663 2420-2989): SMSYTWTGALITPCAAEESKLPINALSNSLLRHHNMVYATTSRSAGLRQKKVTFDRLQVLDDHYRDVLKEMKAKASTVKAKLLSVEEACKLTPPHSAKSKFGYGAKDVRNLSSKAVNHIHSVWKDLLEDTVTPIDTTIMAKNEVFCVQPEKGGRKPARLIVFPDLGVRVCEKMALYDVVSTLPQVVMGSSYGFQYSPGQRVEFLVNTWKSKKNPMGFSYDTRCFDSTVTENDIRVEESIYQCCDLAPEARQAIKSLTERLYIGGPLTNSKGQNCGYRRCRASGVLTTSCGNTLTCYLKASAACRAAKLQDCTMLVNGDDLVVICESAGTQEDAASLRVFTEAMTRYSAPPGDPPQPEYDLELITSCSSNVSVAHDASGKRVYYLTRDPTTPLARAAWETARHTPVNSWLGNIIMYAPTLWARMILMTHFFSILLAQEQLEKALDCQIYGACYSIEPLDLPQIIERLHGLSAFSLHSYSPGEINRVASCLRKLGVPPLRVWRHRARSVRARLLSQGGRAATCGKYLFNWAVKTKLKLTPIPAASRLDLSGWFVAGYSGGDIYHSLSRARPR

CCCCC1(CC(=O)O)OCCc2c1[nH]c1c(Br)cccc21 (centres unmarked) [Example 84, (8-bromo-1-butyl-1,3,4,9-tetrahydropyrano[3,4-b]indol-1-yl)acetic acid]
inhibition at 20 µM (Table 1A, 20 μM compound): 46% | IC50 (Table 1A): 19.7 µM

CCC1(CC(=O)O)OCCc2c1[nH]c1c(Br)cccc21 (centres unmarked) [Example 81, (8-bromo-1-ethyl-1,3,4,9-tetrahydropyrano[3,4-b]indol-1-yl)acetic acid]
inhibition at 20 µM (Table 1A, 20 μM compound): 27% | IC50 (Table 1A): > 20 µM

CCCC1(CC(=O)O)OCCc2c1[nH]c1c(F)ccc(-c3ccc(OC)cc3)c21 (centres unmarked) [Example 149, [8-fluoro-5-(4-methoxyphenyl)-1-propyl-1,3,4,9-tetrahydropyrano[3,4-b]indol-1-yl]acetic acid]
inhibition at 20 µM (Table 1A, 20 μM compound): < 11% | IC50 (Table 1A): 16 µM

O=C(O)CC1(c2ccccc2)OCCc2c1[nH]c1c(Cl)cccc21 (centres unmarked) [Example 78, (8-chloro-1-phenyl-1,3,4,9-tetrahydropyrano[3,4-b]indol-1-yl)acetic acid]
inhibition at 20 µM (Table 1A, 20 μM compound): 26% | IC50 (Table 1A): > 20 µM

CCCCC1(CC(=O)O)OCCc2c1[nH]c1cccc(Cl)c21 (centres unmarked) [Example 69, (1-butyl-5-chloro-1,3,4,9-tetrahydropyrano[3,4-b]indol-1-yl)acetic acid]
IC50 (Table 1A): 5.5 µM

Cc1cc(F)c2[nH]c3c(c2c1Br)CCOC3(CC(=O)O)c1ccc(C(=O)O)cc1 (centres unmarked) [Example 169, 4-[5-bromo-1-(carboxymethyl)-8-fluoro-6-methyl-1,3,4,9-tetrahydropyrano[3,4-b]indol-1-yl]benzoic acid]
inhibition at 20 µM (Table 1A, 20 μM compound): 82% | IC50 (Table 1A): 0.22 µM

CC1(CC(=O)O)OCCc2c1[nH]c1c(Cl)cc(Cl)cc21 (centres unmarked) [Example 99, (6,8-dichloro-1-methyl-1,3,4,9-tetrahydropyrano[3,4-b]indol-1-yl)acetic acid]
inhibition at 20 µM (Table 1A, 20 μM compound): 32% | IC50 (Table 1A): > 20 µM

C/C=C/CCC1(CC(=O)O)OCCc2c1[nH]c1c(F)cc(C)c(C#N)c21 (centres unmarked) [Example 223, {5-cyano-8-fluoro-6-methyl-1-[(3E)-pent-3-enyl]-1,3,4,9-tetrahydropyrano[3,4-b]indol-1-yl}acetic acid]
inhibition at 20 µM (Table 1A, 20 μM compound): 37% | IC50 (Table 1A): > 5 µM

CCCC1(CC(=O)O)OCCc2c1[nH]c1c(Cl)ccc(Cl)c21 (centres unmarked) [Example 7, (5,8-dichloro-1-propyl-1,3,4,9-tetrahydro-pyrano[3,4-b]indol-1-yl)acetic acid]
IC50 (Table 1A): 0.2 µM

CCCC1(CC(=O)O)OCCc2c1[nH]c1cccc(-c3ccc(C(F)(F)F)cc3)c21 (centres unmarked) [Example 36, {1-propyl-5-[4-(trifluoromethyl)phenyl]-1,3,4,9-tetrahydropyrano[3,4-b]indol-1-yl}acetic acid]
inhibition at 20 µM (Table 1A, 20 μM compound): 4% | IC50 (Table 1A): > 20 µM

CCCC1(CC(=O)O)OCCc2c1n(C)c1c(Cl)ccc(Cl)c21 (centres unmarked) [Example 232, (5,8-dichloro-9-methyl-1-propyl-1,3,4,9-tetrahydropyrano[3,4-b]indol-1-yl)acetic acid]
IC50 (Table 1A): 7.6 µM

O=C(O)CC1(c2ccccc2)OCCc2c1[nH]c1c(Cl)cc(Cl)c(Cl)c21 (centres unmarked) [Example 160, (5,6,8-trichloro-1-phenyl-1,3,4,9-tetrahydropyrano[3,4-b]indol-1-yl)acetic acid]
inhibition at 20 µM (Table 1A, 20 μM compound): 15% | IC50 (Table 1A): > 20 µM

C/C=C/CCC1(CC(=O)O)OCCc2c1[nH]c1c(Cl)ccc(Cl)c21 (centres unmarked) [Example 50, (5,8-dichloro-1-[(3E)-pent-3-enyl]-1,3,4,9-tetrahydropyrano[3,4-b]indol-1-yl)acetic acid]
inhibition at 20 µM (Table 1A, 20 μM compound): 34% | IC50 (Table 1A): > 20 µM

CCCC1(CC(=O)O)OCCc2c1[nH]c1c(Cl)cc(C)c(Br)c21 (centres unmarked) [Example 175, (5-bromo-8-chloro-6-methyl-1-propyl-1,3,4,9-tetrahydropyrano[3,4-b]indol-1-yl)acetic acid]
inhibition at 20 µM (Table 1A, 20 μM compound): 84% | IC50 (Table 1A): 0.5 µM

O=C(O)CC1(c2ccc(C(=O)O)cc2)OCCc2c1[nH]c1c(Cl)cc(Cl)c(Cl)c21 (centres unmarked) [Example 161, 4-[1-(carboxymethyl)-5,6,8-trichloro-1,3,4,9-tetrahydropyrano[3,4-b]indol-1-yl]benzoic acid]
inhibition at 20 µM (Table 1A, 20 μM compound): 74% | IC50 (Table 1A): 0.3 µM

CCCC1(CC(=O)O)OCCc2c1[nH]c1cccc(-c3cccc(Cl)c3)c21 (centres unmarked) [Example 49, [5-(3-chlorophenyl)-1-propyl-1,3,4,9-tetrahydropyrano[3,4-b]indol-1-yl]acetic acid]
inhibition at 20 µM (Table 1A, 20 μM compound): < 5% | IC50 (Table 1A): > 20 µM

CC(C)C1(CC(=O)O)OCCc2c1[nH]c1c(Cl)cc(Cl)c(Cl)c21 (centres unmarked) [Example 157, (5,6,8-trichloro-1-isopropyl-1,3,4,9-tetrahydropyrano[3,4-b]indol-1-yl)acetic acid]
inhibition at 20 µM (Table 1A, 20 μM compound): 89% | IC50 (Table 1A): 0.6 µM

CCCC1(CC(=O)O)OCCc2c1[nH]c1c(Cl)ccc(C(F)(F)F)c21 (centres unmarked) [Example 131, [8-chloro-1-propyl-5-(trifluoromethyl)-1,3,4,9-tetrahydropyrano[3,4-b]indol-1-yl]acetic acid]
inhibition at 20 µM (Table 1A, 20 μM compound): 93% | IC50 (Table 1A): 0.32 µM

CC1(CC(=O)O)OCCc2c1[nH]c1c(C(F)(F)F)cccc21 (centres unmarked) [Example 115, [1-methyl-8-(trifluoromethyl)-1,3,4,9-tetrahydropyrano[3,4-b]indol-1-yl]acetic acid]
inhibition at 20 µM (Table 1A, 20 μM compound): 40% | IC50 (Table 1A): > 20 µM

CCC[C@@]1(CC(=O)O)OCCc2c1[nH]c1c(Cl)ccc(Cl)c21 [Example 9, [(S)-5,8-dichloro-1-propyl-1,3,4,9-tetrahydropyrano[3,4-b]indol-1-yl]acetic acid]
IC50 (Table 1A): 1.1 µM

Cc1cc(Cl)c2[nH]c3c(c2c1Br)CCOC3(C)CC(=O)O (centres unmarked) [Example 173, (5-bromo-8-chloro-1,6-dimethyl-1,3,4,9-tetrahydropyrano[3,4-b]indol-1-yl)acetic acid]
inhibition at 20 µM (Table 1A, 20 μM compound): 19% | IC50 (Table 1A): > 5 µM

CCCC1(CC(=O)O)OCCc2c1[nH]c1c(C#N)cccc21 (centres unmarked) [Example 98, (8-cyano-1-propyl-1,3,4,9-tetrahydropyrano[3,4-b]indol-1-yl)acetic acid]
inhibition at 20 µM (Table 1A, 20 μM compound): 44% | IC50 (Table 1A): > 20 µM

CCCCC1(CC(=O)O)OCCc2c1[nH]c1c(C)ccc(F)c21 (centres unmarked) [Example 144, (1-butyl-5-fluoro-8-methyl-1,3,4,9-tetrahydropyrano[3,4-b]indol-1-yl)acetic acid]
inhibition at 20 µM (Table 1A, 20 μM compound): 73% | IC50 (Table 1A): 6 µM

CCCC1(CC(=O)O)OCCc2c1[nH]c1cccc(-c3ccccc3OC)c21 (centres unmarked) [Example 43, [5-(2-methoxyphenyl)-1-propyl-1,3,4,9-tetrahydropyrano[3,4-b]indol-1-yl]acetic acid]
IC50 (Table 1A): > 20 µM | inhibition at 20 µM: 83%

Cc1cc(Cl)c2[nH]c3c(c2c1C#N)CCOC3(CC(=O)O)c1ccccc1 (centres unmarked) [Example 187, (8-chloro-5-cyano-6-methyl-1-phenyl-1,3,4,9-tetrahydropyrano[3,4-b]indol-1-yl)acetic acid]
inhibition at 20 µM (Table 1A, 20 μM compound): 61% | IC50 (Table 1A): > 5 µM

CCC1(CC(=O)O)OCCc2c1[nH]c1c(C)ccc(F)c21 (centres unmarked) [Example 142, (1-ethyl-5-fluoro-1,3,4,9-tetrahydro-8-methyl-pyrano[3,4-b]indol-1-yl)acetic acid]
inhibition at 20 µM (Table 1A, 20 μM compound): 39% | IC50 (Table 1A): 19.8 µM

C/C=C/CCC1(CC(=O)O)OCCc2c1[nH]c1c(F)ccc(F)c21 (centres unmarked) [Example 127, {5,8-difluoro-1-[(3E)-pent-3-enyl]-1,3,4,9-tetrahydropyrano[3,4-b]indol-1-yl}acetic acid]
inhibition at 20 µM (Table 1A, 20 μM compound): 24% | IC50 (Table 1A): > 20 µM

COC(=O)CC1(CC(=O)O)OCCc2c1[nH]c1cccc(Cl)c21 (centres unmarked) [Example 70, [5-chloro-1-(2-methoxy-2-oxoethyl)-1,3,4,9-tetrahydropyrano[3,4-b]indol-1-yl]acetic acid]
inhibition at 20 µM (Table 1A, 20 μM compound): 22% | IC50 (Table 1A): > 5 µM

Cc1cc(F)c2[nH]c3c(c2c1C#N)CCOC3(CC(=O)O)C(C)C (centres unmarked) [Example 222, (5-cyano-8-fluoro-1-isopropyl-6-methyl-1,3,4,9-tetrahydropyrano[3,4-b]indol-1-yl)aceti acid]
inhibition at 20 µM (Table 1A, 20 μM compound): 45% | IC50 (Table 1A): > 5 µM

Cc1cc(Cl)c2[nH]c3c(c2c1C#N)CCOC3(CC(=O)O)c1ccc(C(=O)O)cc1 (centres unmarked) [Example 188, 4-[1-(carboxymethyl)-8-chloro-5-cyano-6-methyl-1,3,4,9-tetrahydropyrano[3,4-b]indol-1-yl]benzoic acid]
inhibition at 20 µM (Table 1A, 20 μM compound): 76% | IC50 (Table 1A): > 5 µM

CCC1(CC(=O)O)OCCc2c1[nH]c1c(F)cc(F)c(Br)c21 (centres unmarked) [Example 189, (5-bromo-1-ethyl-6,8-difluoro-1,3,4,9-tetrahydropyrano[3,4-b]indol-1-yl)acetic acid]
inhibition at 20 µM (Table 1A, 20 μM compound): 74% | IC50 (Table 1A): 4.2 µM

CCCC1(CC(=O)O)OCCc2c1[nH]c1c(F)ccc(Br)c21 (centres unmarked) [Example 152, (5-bromo-8-fluoro-1-propyl-1,3,4,9-tetrahydropyrano[3,4-b]indol-1-yl)acetic acid]
inhibition at 20 µM (Table 1A, 20 μM compound): 87% | IC50 (Table 1A): 1 µM

O=C(O)CC1(c2ccc(C(=O)O)cc2)OCCc2c1[nH]c1c(F)ccc(F)c21 (centres unmarked) [Example 128, 4-[1-(carboxymethyl)-5,8-difluoro-1,3,4,9-tetrahydropyrano[3,4-b]indol-1-yl]benzoic acid]
inhibition at 20 µM (Table 1A, 20 μM compound): 70% | IC50 (Table 1A): > 20 µM

CCCC1(CC(=O)O)OCCc2c1[nH]c1c(C)ccc(Br)c21 (centres unmarked) [Example 153, (5-bromo-8-methyl-1-propyl-1,3,4,9-tetrahydropyrano[3,4-b]indol-1-yl)acetic acid]
inhibition at 20 µM (Table 1A, 20 μM compound): 93% | IC50 (Table 1A): 0.3 µM

O=C(O)CC1(c2ccccc2)OCCc2c1[nH]c1cccc(Br)c21 (centres unmarked) [Example 26, (5-bromo-1-phenyl-1,3,4,9-tetrahydropyrano[3,4-b]indol-1-yl)acetic acid]
inhibition at 20 µM (Table 1A, 20 μM compound): < 5% | IC50 (Table 1A): > 20 µM

CCCC1(CC(=O)O)OCCc2c1[nH]c1cccc(-c3ccc(SC)cc3)c21 (centres unmarked) [Example 46, (5-[4-(methylthio)phenyl]-1-propyl-1,3,4,9-tetrahydropyrano[3,4-b]indol-1-yl)acetic acid]
inhibition at 20 µM (Table 1A, 20 μM compound): 15% | IC50 (Table 1A): > 20 µM
